According to the NIST ThermoML archive (doi:10.1021/je5010214):

Details: Liquid, Vibrating tube method

CC(C)CO [2-methyl-1-propanol]
Details | mass density [kg/m3]
343.15 K, 50016 kPa | 802.401
343.15 K, 52079 kPa | 803.724
343.15 K, 54997 kPa | 805.581
343.15 K, 57987 kPa | 807.46
343.15 K, 62074 kPa | 809.959
343.15 K, 65051 kPa | 811.734
343.15 K, 66170 kPa | 812.401
343.16 K, 60015 kPa | 808.691
348.15 K, 94 kPa | 756.672
348.15 K, 293.8 kPa | 756.914
348.15 K, 481.9 kPa | 757.128
348.15 K, 763.5 kPa | 757.435
348.15 K, 1011 kPa | 757.701
348.15 K, 1981.1 kPa | 758.826
348.15 K, 3073.2 kPa | 759.88
348.15 K, 5089.9 kPa | 762.131
348.15 K, 7034.6 kPa | 764.092
348.15 K, 9052.5 kPa | 766.106
348.15 K, 9991.3 kPa | 767.026
348.15 K, 15042 kPa | 771.822
348.15 K, 17922 kPa | 774.408
348.15 K, 19893 kPa | 776.137
348.15 K, 22033 kPa | 777.985
348.15 K, 22381 kPa | 778.265
348.15 K, 28023 kPa | 782.927
348.15 K, 29922 kPa | 784.471
348.15 K, 33999 kPa | 787.493
348.15 K, 34980 kPa | 788.228
348.15 K, 37995 kPa | 790.467
348.15 K, 40072 kPa | 791.973
348.15 K, 41992 kPa | 793.388
348.15 K, 45082 kPa | 795.525
348.15 K, 48031 kPa | 797.589
348.15 K, 52067 kPa | 800.261
348.15 K, 55099 kPa | 802.242
348.15 K, 60084 kPa | 805.42
348.15 K, 62302 kPa | 806.758
348.15 K, 65219 kPa | 808.569
348.15 K, 66250 kPa | 809.201
348.16 K, 12060 kPa | 769.03
348.16 K, 25066 kPa | 780.513
348.16 K, 32007 kPa | 786.046
348.16 K, 32760 kPa | 786.619
348.16 K, 32941 kPa | 786.66
348.16 K, 50014 kPa | 798.878
348.16 K, 58146 kPa | 804.186
353.15 K, 98.1 kPa | 752.221
353.15 K, 305.8 kPa | 752.433
353.15 K, 384 kPa | 752.511
353.15 K, 558.5 kPa | 752.696
353.15 K, 929.4 kPa | 753.125
353.15 K, 1073.7 kPa | 753.289
353.15 K, 2082.7 kPa | 754.432
353.15 K, 3025.9 kPa | 755.465
353.15 K, 5017.9 kPa | 757.656
353.15 K, 6957.8 kPa | 759.69
353.15 K, 8976.6 kPa | 761.781
353.15 K, 9990.3 kPa | 762.812
353.15 K, 11934 kPa | 764.803
353.15 K, 14917 kPa | 767.603
353.15 K, 18020 kPa | 770.471
353.15 K, 19983 kPa | 772.259
353.15 K, 22060 kPa | 773.965
353.15 K, 24899 kPa | 776.429
353.15 K, 27951 kPa | 778.961
353.15 K, 29947 kPa | 780.584
353.15 K, 31942 kPa | 782.185
353.15 K, 32982 kPa | 782.978
353.15 K, 33037 kPa | 783.002
353.15 K, 33907 kPa | 783.604
353.15 K, 35053 kPa | 784.493
353.15 K, 37939 kPa | 786.664
353.15 K, 39830 kPa | 788.076
353.15 K, 41863 kPa | 789.556
353.15 K, 44753 kPa | 791.642
353.15 K, 47880 kPa | 793.816
353.15 K, 49780 kPa | 795.14
353.15 K, 51876 kPa | 796.535
353.15 K, 55023 kPa | 798.765
353.15 K, 55678 kPa | 799.178
353.15 K, 57869 kPa | 800.594
353.15 K, 59971 kPa | 801.962
353.15 K, 62015 kPa | 803.245
353.15 K, 64989 kPa | 805.09
353.15 K, 66151 kPa | 805.82
358.15 K, 91.6 kPa | 747.694
358.15 K, 304.9 kPa | 747.895
358.15 K, 517.3 kPa | 748.147
358.15 K, 850.1 kPa | 748.568
358.15 K, 1095.5 kPa | 748.835
358.15 K, 2101.6 kPa | 750.029
358.15 K, 3210.6 kPa | 751.303
358.15 K, 5324.2 kPa | 753.465
358.15 K, 7190.1 kPa | 755.483
358.15 K, 9074.3 kPa | 757.505
358.15 K, 10165 kPa | 758.644
358.15 K, 12208 kPa | 760.738
358.15 K, 13986 kPa | 762.552
358.15 K, 15000 kPa | 763.577
358.15 K, 17866 kPa | 766.293
358.15 K, 20104 kPa | 768.379
358.15 K, 27962 kPa | 775.177
358.15 K, 30131 kPa | 776.699
358.15 K, 32076 kPa | 778.299
358.15 K, 32938 kPa | 778.904
358.15 K, 33039 kPa | 779.08
358.15 K, 33914 kPa | 779.672
358.15 K, 34978 kPa | 780.53
358.15 K, 37986 kPa | 782.876
358.15 K, 39996 kPa | 784.402
358.15 K, 42079 kPa | 785.976
358.15 K, 45119 kPa | 788.207
358.15 K, 48100 kPa | 790.343
358.15 K, 49987 kPa | 791.672
358.15 K, 52101 kPa | 793.112
358.15 K, 54983 kPa | 795.084
358.15 K, 58017 kPa | 797.106
358.15 K, 60055 kPa | 798.438
358.15 K, 62083 kPa | 799.766
358.15 K, 65016 kPa | 801.626
358.15 K, 66339 kPa | 802.467
358.16 K, 22005 kPa | 770.073
358.16 K, 25079 kPa | 772.781
363.15 K, 53.2 kPa | 742.307
363.15 K, 125.5 kPa | 742.405
363.15 K, 320.3 kPa | 742.647
363.15 K, 562.5 kPa | 742.935
363.15 K, 892.5 kPa | 743.339
363.15 K, 1001.3 kPa | 743.446
363.15 K, 1911.6 kPa | 744.576
363.15 K, 2977.3 kPa | 745.832
363.15 K, 4957.5 kPa | 748.169
363.15 K, 6937.4 kPa | 750.436
363.15 K, 8892.9 kPa | 752.564
363.15 K, 10033 kPa | 753.801
363.15 K, 11914 kPa | 755.769
363.15 K, 14908 kPa | 758.826
363.15 K, 17925 kPa | 761.773
363.15 K, 19995 kPa | 763.754
363.15 K, 21953 kPa | 765.578
363.15 K, 24962 kPa | 768.273
363.15 K, 27932 kPa | 770.858
363.15 K, 30163 kPa | 772.879
363.15 K, 32029 kPa | 774.439
363.15 K, 33151 kPa | 775.369
363.15 K, 33315 kPa | 775.421
363.15 K, 34086 kPa | 776.049
363.15 K, 35189 kPa | 776.934
363.15 K, 37932 kPa | 779.076
363.15 K, 40070 kPa | 780.754
363.15 K, 41883 kPa | 782.107
363.15 K, 44755 kPa | 784.308
363.15 K, 48054 kPa | 786.713
363.15 K, 50037 kPa | 788.134
363.15 K, 51977 kPa | 789.492
363.15 K, 55048 kPa | 791.627
363.15 K, 57990 kPa | 793.615
363.15 K, 60071 kPa | 794.972
363.15 K, 62073 kPa | 796.302
363.15 K, 64996 kPa | 798.178
363.15 K, 66050 kPa | 798.847
